Earlier results, collected in paper PMC9516332 (Frontiers in Oncology, 2022).
Where two headings read alike, the source gives them in different places.

Experiments:
[1] = target: panel of 255 wild-type kinases (Homo sapiens, UniProt O95819); settings: kinase HGK, 1 µmol/L single concentration, cited from earlier work
[2] = target: panel of 255 wild-type kinases (Homo sapiens, UniProt P05771); settings: kinase PKCβ1, 1 µmol/L single concentration, cited from earlier work
[3] = target: panel of 255 wild-type kinases (Homo sapiens, UniProt P08069); settings: kinase IGF1R, 1 µmol/L single concentration, cited from earlier work
[4] = target: panel of 255 wild-type kinases (Homo sapiens, UniProt P09619); settings: kinase PDGFRβ, 1 µmol/L single concentration, cited from earlier work
[5] = target: panel of 255 wild-type kinases (Homo sapiens, UniProt P11309); settings: kinase PIM1, 1 µmol/L single concentration, cited from earlier work
[6] = target: panel of 255 wild-type kinases (Homo sapiens, UniProt P29597); settings: kinase TYK2, 1 µmol/L single concentration, cited from earlier work
[7] = target: panel of 255 wild-type kinases (Homo sapiens, UniProt P31751); settings: AKT2 kinase assay, 1 µmol/L single concentration, cited from earlier work
[8] = target: panel of 255 wild-type kinases (Homo sapiens, UniProt P49759); settings: kinase CLK1, 1 µmol/L single concentration, cited from earlier work
[9] = target: panel of 255 wild-type kinases (Homo sapiens, UniProt P53779); settings: kinase JNK3, 1 µmol/L single concentration, cited from earlier work
[10] = target: panel of 255 wild-type kinases (Homo sapiens, UniProt P54756); settings: kinase EPHA5, 1 µmol/L single concentration, cited from earlier work
[11] = target: panel of 255 wild-type kinases (Homo sapiens, UniProt Q13153); settings: PAK1, 1 µmol/L single concentration, cited from earlier work
[12] = target: T1, panel of 255 wild-type kinases (Homo sapiens, UniProt Q13237); settings: CGK2 kinase assay, 1 µmol/L single concentration, cited from earlier work
T1 sequence (Q13237 1-762): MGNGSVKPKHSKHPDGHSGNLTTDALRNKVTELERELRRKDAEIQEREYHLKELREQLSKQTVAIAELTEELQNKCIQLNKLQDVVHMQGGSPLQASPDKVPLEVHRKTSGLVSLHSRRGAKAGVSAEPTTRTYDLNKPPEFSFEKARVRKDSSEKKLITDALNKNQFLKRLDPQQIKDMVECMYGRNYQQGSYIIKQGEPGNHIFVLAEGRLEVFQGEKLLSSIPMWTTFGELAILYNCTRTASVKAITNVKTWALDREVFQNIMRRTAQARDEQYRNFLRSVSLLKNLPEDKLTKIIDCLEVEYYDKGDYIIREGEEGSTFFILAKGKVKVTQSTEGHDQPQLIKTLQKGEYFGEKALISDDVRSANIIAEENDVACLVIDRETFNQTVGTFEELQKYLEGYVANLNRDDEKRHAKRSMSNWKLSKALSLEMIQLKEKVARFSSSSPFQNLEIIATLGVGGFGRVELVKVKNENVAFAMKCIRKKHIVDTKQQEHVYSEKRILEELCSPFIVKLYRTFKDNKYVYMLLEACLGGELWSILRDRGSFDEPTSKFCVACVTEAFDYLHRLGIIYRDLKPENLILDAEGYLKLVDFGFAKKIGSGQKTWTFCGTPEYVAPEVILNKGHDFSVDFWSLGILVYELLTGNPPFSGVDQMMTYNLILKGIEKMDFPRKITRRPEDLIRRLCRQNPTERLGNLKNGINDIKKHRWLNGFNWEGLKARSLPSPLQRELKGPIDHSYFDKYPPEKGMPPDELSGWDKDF

[13] = target: panel of 255 wild-type kinases (Homo sapiens, UniProt Q14012); settings: CaMK1α kinase assay, 1 µmol/L single concentration, cited from earlier work
[14] = target: panel of 255 wild-type kinases (Homo sapiens, UniProt Q16654); settings: kinase PDHK4, 1 µmol/L single concentration, cited from earlier work
[15] = target: panel of 255 wild-type kinases (Homo sapiens, UniProt Q96SB4); settings: kinase SRPK1, 1 µmol/L single concentration, cited from earlier work
[16] = target: panel of 255 wild-type kinases (Homo sapiens, UniProt Q9HBH9); settings: MNK2, 1 µmol/L single concentration, cited from earlier work
[17] = target: panel of 255 wild-type kinases (Homo sapiens, UniProt Q9Y243); settings: AKT3 kinase assay, 1 µmol/L single concentration, cited from earlier work
[18] = target: panel of 255 wild-type kinases (Homo sapiens, UniProt Q9Y6E0); settings: MST3, 1 µmol/L single concentration, cited from earlier work
[19] = ref DOI: 10.1158/1535-7163.MCT-18-0877
[20] = ref DOI: 10.1371/journal.pone.0092146

SMILES	%-inhibition at 1 µmol/L, HGK [1, 19] [%]	%-inhibition at 1 µmol/L, PKCβ1 [2, 19] [%]	%-inhibition at 1 µmol/L, IGF1R [3, 19] [%]	%-inhibition at 1 µmol/L, PDGFRβ [4, 19] [%]	%-inhibition at 1 µmol/L, PIM1 [5, 19] [%]	%-inhibition at 1 µmol/L, TYK2 [6, 19] [%]	%-inhibition AKT2 [7, 19] [%]	%-inhibition at 1 µmol/L, CLK1 [8, 19] [%]	%-inhibition at 1 µmol/L, JNK3 [9, 19] [%]	%-inhibition at 1 µmol/L, EPHA5 [10, 19] [%]	%-inhibition, PAK1 [11, 19] [%]	%-inhibition CGK2 [12, 19] [%]	%-inhibition CaMK1α [13, 19] [%]	%-inhibition at 1 µmol/L, PDHK4 [14, 19] [%]	%-inhibition at 1 µmol/L, SRPK1 [15, 19] [%]	%-inhibition, MNK2 [16, 19] [%]	%-inhibition AKT3 [17, 19] [%]	%-inhibition, MST3 [18, 19] [%]	%-inhibition at 1 µmol/L, TYK2 [6, 20] [%]	%-inhibition at 1 µmol/L, CLK1 [8, 20] [%]	other results
CC#CC(=O)N1CCC[C@H]1c1nc(-c2ccc(C(=O)Nc3ccccn3)cc2)c2c(N)nccn12 [acalabrutinib]	-1.42	-11	0.466	5.36	-4.28	13	-2.69	-8	-0.893	-1.17	-0.369	1.55	-4.29	0.391	-4.73	12	-5	-2.52	–	–	–
Cc1cc(Nc2ncc(Cl)c(Nc3ccccc3S(=O)(=O)C(C)C)n2)c(OC(C)C)cc1C1CCNCC1 [ceritinib]	10	6.66	103	55	-8	13	-4.7	99	16	5	7.58	14	37	2.55	–	76	-4	31	–	–	–
C[C@@H](Oc1cc(-c2cnn(C3CCNCC3)c2)cnc1N)c1c(Cl)ccc(F)c1Cl [crizotinib]	–	–	–	–	–	–	–	–	–	–	–	–	–	–	–	–	–	–	21	13	%-inhibition at 1 µmol/L, PKCβ1 [2, 20]: -3%; %-inhibition at 1 µmol/L, IGF1R [3, 20]: 80%; %-inhibition at 1 µmol/L, PDGFRβ [4, 20]: 18%; %-inhibition at 1 µmol/L, PIM1 [5, 20]: -7%; %-inhibition AKT2 [7, 20]: -2.67%; %-inhibition at 1 µmol/L, JNK3 [9, 20]: -1.87%; %-inhibition at 1 µmol/L, EPHA5 [10, 20]: 71%; %-inhibition, PAK1 [11, 20]: -4%; %-inhibition CGK2 [12, 20]: -0.915%; %-inhibition CaMK1α [13, 20]: 0.734%; %-inhibition at 1 µmol/L, PDHK4 [14, 20]: -3.76%; %-inhibition at 1 µmol/L, SRPK1 [15, 20]: 4.55%; %-inhibition, MNK2 [16, 20]: 2%; %-inhibition AKT3 [17, 20]: -1.83%; %-inhibition, MST3 [18, 20]: 11%
CC(C)(C)c1nc(-c2cccc(NS(=O)(=O)c3c(F)cccc3F)c2F)c(-c2ccnc(N)n2)s1 [dabrafenib]	–	–	–	–	–	–	–	–	–	–	–	–	–	–	–	–	–	–	10	7	%-inhibition at 1 µmol/L, HGK [1, 20]: 7%; %-inhibition at 1 µmol/L, JNK3 [9, 20]: 5.59%; %-inhibition CGK2 [12, 20]: -1.38%; %-inhibition at 1 µmol/L, PDHK4 [14, 20]: -1%; %-inhibition, MST3 [18, 20]: 0.532%
C=CC(=O)N1CCC[C@@H](n2nc(-c3ccc(Oc4ccccc4)cc3)c3c(N)ncnc32)C1 [ibrutinib]	-0.0249	-3	7.45	55	–	7	-3	–	1	26	6.57	-1.77	14	–	1.2	20	-2.25	8	–	–	–
CO[C@@H]1[C@H](N(C)C(=O)c2ccccc2)C[C@H]2O[C@]1(C)n1c3ccccc3c3c4c(c5c6ccccc6n2c5c31)C(=O)NC4 [midostaurin]	97	89	24	100	52	–	–	–	–	8	–	–	–	1.09	1.28	80	–	–	–	–	–
